Patent US20130261165A1, “PREVENTION AND TREATMENT OF DISEASES CHARACTERIZED BY MESENCEPHALIC DOPAMINERGIC NEURON CELL DEATH” (THE MCLEAN HOSPITAL CORPORATION, priority 2010, published 2013)
Where “and” joins values, the source holds several entries; their conditions need not be identical. Equal entries are not always repeated. Structures can show the parent of a compound that is named as a salt.

Legend:
En-1 [1] = experiment: En-1 mRNA expression by qPCR in primary ventral midbrain cultures; conditions: for fold induction at 10 µM: Mus musculus, 24 h, read-out: Fold Increase in En-1 Expression
Protocol: (§5) One library consisting of FDA-approved and non-FDA approved drugs (NINDS) was screened for drugs with an ability to up-regulate En-1 and/or FoxA2 expression in neuronal cells. Candidate compounds were screened in a gene expression assay using a qPCR detection methodology in a primary ventral midbrain preparation of E12 mice.
(§6) To determine the extent of upregulation in the compounds of interest after initial screening, primary cultures of ventral midbrain cells of E12 CD1 mice were prepared. The embryonic ventral midbrains were removed and stored in HBSS on ice. The dissection time was less than 30-60 minutes. The ventral midbrain tissue was dissociated by removal of the HBSS and addition of 1 ml of 0.05% trypsin-EDTA for 10 minutes at 37° C. During incubation, the tissue and the trypsin-EDTA solution was mixed by occasional careful swirling of the tube. The reaction was stopped, the trypsin aspirated, and 1 ml of 50% HBSS/FBS was added. […] Candidate compound treatment was stopped by cell lysis. The mRNA was isolated and cDNA was synthesized using the Qiagen Turbocapture™ kit (Qiagen Inc., Valencia, Calif.) using Superscript III® reverse transcriptase (Life Technologies, Carlsbad, Calif.) according to manufacturer's protocol. En-1 and FOXA2 mRNA in the cultured cells was quantified using qPCR. […] Assay fluorescence was determined using a Step-One Plus fluorescence plate reader in 96-well plates at a standard reaction time for ramp speed.
(§7) The fold change in mRNA expression level was calculated according to the following formulas:
Fold change=2^−ΔΔCt wherein [1]
(§8) ΔΔCt=(Cttarget gene−Ct18S)treated−(Cttarget gene−Ct18S)untreated.
(§9) In formula 2, Cttarget gene refers to the Ct value determined for either En-1 or FOXA2 (as appropriate) and Ct18S refers to the Ct value determined for the mRNA encoding the 18S ribosomal subunit, each measured by qPCR.

FoxA2 [2] = experiment: FoxA2 mRNA expression by qPCR in primary ventral midbrain cultures; conditions: for fold induction at 10 µM: Mus musculus, 24 h, read-out: Fold Increase in FoxA2 Expression
Protocol: as §5, §6, §7
Fold change=2^−ΔΔCt wherein [1]
as §8, §9

En-1 [3] = conditions: adult male C57 mice, 20 mg/kg/day subcutaneous for 12 days, n=8, qPCR vs GAPDH and β-actin, listed as duloxetine HCl, hydrochloride
Protocol: (§1) Adult mice were treated with duloxetine HCl (20 mg/kg/day) by subcutaneous injection for 12 days (n=8). […] Data were obtained by qPCR analysis using GAPDH and β-actin as housekeeping genes followed by ΔΔCt calculation.
(§2) Duloxetine HCl (20 mg/kg/day) or saline vehicle was administrated subcutaneously into adult male C57 mice over a period of 12 days. […] Substantia nigra pars compacta was fresh dissected and snap frozen in RNA preserving solution in liquid nitrogen. […] Changes in mRNA expression due to duloxetine HCl treatment were determined by quantitative PCR using a Step One Plus Instrument and TaqMan® reagents (Applied Biosystems). […] Beta actin and GAPD were used as housekeeping genes and fold regulation was calculated using the delta Ct method.
(§3) ΔΔCt=(Cttarget gene−Cthousekeeping gene)treated−(Cttarget gene−Cthousekeeping gene)untreated
(§4) Untreated refers to combined cDNA from the saline treated animals. cDNA from each saline treated animal was also run against the pooled control cDNA.

FoxA2 [4] = conditions: adult male C57 mice, 20 mg/kg/day subcutaneous for 12 days, n=8, qPCR vs GAPDH and β-actin, listed as duloxetine HCl, hydrochloride
Protocol: as §1, §2, §3, §4

[5] = tested on: FoxA2 positive dopaminergic neurons; conditions: 10 μM pre-treatment 24 hours prior to 6-OHDA (1-50 μM); control = cells not exposed to toxin
Protocol: The embryonic ventral midbrains were removed and stored in HBSS on ice. The dissection time was less than 30-60 minutes. The ventral midbrain tissue was dissociated by removal of the HBSS and the addition of 1 ml of 0.05% trypsin-EDTA for 10 minutes at 37° C. During incubation, the tissue and the trypsin-EDTA solution was mixed by occasional careful swirling of the tube. The reaction was stopped, the trypsin aspirated, and 1 ml of 50% HBSS/FBS was added. […] The tissue was triturated using an autoclaved glass pasteur pipette with narrowed opening and a stripettor. The cell suspension was centrifuged at 1000 rpm for 5 min, the supernatant aspirated, and the cells resuspended in E12 media. Twenty-five thousand cells per well were plated in 96 well PLO/laminin coated black-wall imaging plates (Costar) and incubated for 6 days without candidate compound treatment. […] 6-hydroxydopamine hydrobromide (6-OHDA) (Sigma) was reconstituted in ascorbic acid and PBS and added at concentrations of 1-50 μM to the cultures. […] Cultures were stained for tyrosine hydroxylase, FoxA2 and Hoechst and visualized using alexa fluor secondary antibodies. Cultures were analyzed by high content analysis (using an InCell 2000 instrument). The percentage of FoxA2 positive dopaminergic neurons were documented.

[6] = cited from earlier work
[7] = primary ventral midbrain cells of E12 CD1 mice, 10 μM for 24 hours, qPCR vs 18S

Row | SMILES | fold induction at 10 µM (En-1 [1]) | fold induction at 10 µM (FoxA2 [2]) | further results
1 | CC(=O)c1ccc(S(=O)(=O)NC(=O)NC2CCCCC2)cc1 [Acetohexamide] | 2.3 | 3 | –
2 | CNCC[C@H](Oc1cccc2ccccc12)c1cccs1 [Duloxetine hydrochloride] | 19 | 49.5 | En-1 mRNA expression in substantia nigra, fold increase (En-1 [3]): 1.98 fold and 1.98±0.098 fold; FoxA2 mRNA expression in substantia nigra, fold increase (FoxA2 [4]): 2.19 fold and 2.19±0.23 fold; DA neuron survival as a percentage of control [5]: 107%
3 | CNCC[C@H](Oc1cccc2ccccc12)c1cccs1 [Duloxetine] | – | – | dosage hydrolyzed to 1-naphthol ([6]; pH 1.0, within one hour): 50%; dosage degraded to 1-naphthol ([6]; pH 2.0, in one hour): 10%; time for 10% degradation ([6]; pH 4.0): up to 63 hours
4 | O=C(O)c1ccccc1Nc1cccc(C(F)(F)F)c1 [Flufenamic acid] | 2.6 | 3.4 | –
5 | CC1(C)O[C@@H]2C[C@H]3[C@@H]4C[C@H](F)C5=CC(=O)CC[C@]5(C)[C@H]4[C@@H](O)C[C@]3(C)[C@]2(C(=O)CO)O1 [Flurandrenolide] | 1.5 | 1.9 | –
6 | CC(=O)O[C@]1(C(C)=O)CC[C@H]2[C@@H]3C=C(C)C4=CC(=O)CC[C@]4(C)[C@H]3CC[C@@]21C [Megestrol acetate] | 2.14 | 1.89 | –
7 | Cn1cc[nH]c1=S [Methimazole] | 0.2 | 1.97 | –
8 | COc1ccccc1OCC(O)COC(N)=O (stereo not drawn) [Methocarbamol] | 1.83 | 2.3 | –
9 | C[N+]1(C)[C@@H]2C[C@@H](OC(=O)[C@H](CO)c3ccccc3)C[C@H]1[C@@H]1O[C@@H]12 [Methscopolamine bromide] | 1.9 | 1.9 | –
10 | C[C@H]1C[C@@H]2[C@H]([C@@H](O)C[C@@]3(C)[C@H]2CC[C@]3(O)C(=O)CO)[C@@]2(C)C=CC(=O)C=C12 [Methylprednisolone] | 1.38 | 1.41 | –
11 | Cc1cc(=O)[nH]c(=S)[nH]1 [Methylthiouracil] | – | 2.34 | –
12 | CO[C@@]1(NC(=O)C(C(=O)O)c2ccc(O)cc2)C(=O)N2C(C(=O)O)=C(CSc3nnnn3C)CO[C@@H]21 (stereo partly drawn) [Moxalactam disodium] | 4.34 | 7.31 | –
13 | O=C1CC[C@@]2(O)[C@H]3Cc4ccc(O)c5c4[C@@]2(CCN3CC2CC2)[C@H]1O5 [Naltrexone hydrochloride] | 2.09 | 3.39 | –
14 | c1ccc2c(CC3=NCCN3)cccc2c1 [Naphazoline hydrochloride] | 8.95 | 1.99 | –
15 | NC(=O)c1cc([N+](=O)[O-])cc([N+](=O)[O-])c1 [Nitromide] | – | – | Fold Increase in En-1 Expression (En-1 [1]; [7]): 0.28 Fold; Fold Increase in FoxA2 Expression (FoxA2 [2]; [7]): 1.55 Fold
16 | COc1ccc2c(c1OC)C(=O)O[C@@H]2[C@H]1c2c(cc3c(c2OC)OCO3)CCN1C [Noscapine hydrochloride] | 1.83 | 1.45 | –
17 | CC(CCc1ccccc1)NC(C)C(O)c1ccc(O)cc1 (stereo not drawn) [Nylidrin hydrochloride] | – | 1.7 | –
18 | Cc1ccccc1C(OCCN(C)C)c1ccccc1 (stereo not drawn) [Orphenadrine citrate] | 1.69 | 1.82 | –
19 | C#CCN(C)Cc1ccccc1 [Pargyline hydrochloride] | 1.73 | 1.27 | –
20 | NNCCc1ccccc1 [Phenelzine sulfate] | – | 2.5 | –
21 | CC(C)NCC(O)COc1cccc2[nH]ccc12 (stereo not drawn) [Pindolol] | 9.8 | 44.1 | –
22 | CCC1(c2ccccc2)C(=O)NCNC1=O [Primidone] | 0.86 | 1.43 | –
23 | CCCc1cc(=O)[nH]c(=S)[nH]1 [Propylthiouracil] | 1.3 | 1.68 | –
24 | CC(N)C12CC3CC(CC(C3)C1)C2 (stereo not drawn) [Rimantadine hydrochloride] | 1.3 | 2.7 | –
25 | CC(=O)S[C@@H]1CC2=CC(=O)CC[C@]2(C)[C@H]2CC[C@@]3(C)[C@@H](CC[C@@]34CCC(=O)O4)[C@H]12 [Spironolactone] | 1.34 | 1.74 | –
26 | CCN1CCCC1CNC(=O)c1cc(S(N)(=O)=O)ccc1OC (stereo not drawn) [Sulpiride] | 1.4 | 1.7 | –
27 | c1ccc2c(c1)CCCC2C1=NCCN1 (stereo not drawn) [Tetrahydrozoline hydrochloride] | 1.06 | 2.06 | –
28 | c1ccc(CC2=NCCN2)cc1 [Tolazoline hydrochloride] | 2.51 | 2.67 | –
29 | CCCCNC(=O)NS(=O)(=O)c1ccc(C)cc1 [Tolbutamide] | 21.6 | 35 | –
30 | CCOC(=O)[C@H](CCc1ccccc1)N[C@@H](C)C(=O)N1[C@H](C(=O)O)C[C@H]2CCCC[C@@H]21 [Trandolapril] | 17.9 | – | –
